Source: patent EP0960886B1, “Peptide T and related peptides in the treatment of inflammation, including multiple sclerosis” (priority 1992, dated 1993)

Tested on: allogeneic PBMC
Assay: Two way MLR (Example 9)
Format: cell-based, human
Conditions: without Peptide T 1365 ± 335
Description: A two way MLR was performed using 10^5 allogeneic PBMC (cpm of A = 142 ± 86, B = 148 ± 84) cocultured in 200 µl of media as described in Table III.
Peptide T given on the first day of an MLR will inhibit allogeneic induced proliferation of PBMC (Table IV).

## C[C@@H](N)C(=O)N[C@@H](CO)C(=O)N[C@H](C(=O)N[C@H](C(=O)N[C@H](C(=O)N[C@@H](CC(N)=O)C(=O)N[C@@H](Cc1ccc(O)cc1)C(=O)N[C@H](C(N)=O)[C@@H](C)O)[C@@H](C)O)[C@@H](C)O)[C@@H](C)O [Peptide T, D-Ala-Ser-Thr-Thr-Thr-Asn-Tyr-Thr-NH2]
Peptide T 10^-0 mol/l
  cpm ± SD: 764 ± 77 cpm
Peptide T 10^-5 mol/l
  cpm ± SD: 649 ± 263 cpm
Peptide T 10^-7 mol/l
  cpm ± SD: 534 ± 108 cpm
Peptide T 10^-11 mol/l
  cpm ± SD: 681 ± 222 cpm
Peptide T 10^-13 mol/l
  cpm ± SD: 235 ± 4 cpm
Peptide T 10^-15 mol/l
  cpm ± SD: 371 ± 117 cpm
Peptide T 10^-17 mol/l
  cpm ± SD: 672 ± 261 cpm
